Results taken from patent publication US6207675A, “Pyrrole derivatives, their preparation and pharmaceutical compositions containing them” (Rhone-Poulenc Rorer S.A., priority 1996, dated 2001).
Converted amounts (≈) assume the structure as drawn.

What was measured:
[1] = test system: human cytomegalovirus AD-169 strain; assay: Antiviral activity on human cytomegalovirus, AD-169 strain (protection from virus-induced cytopathogenic effect); format: cell-based
Method: (§1) Infect. Dis., 10, 1026-1033 (1991); or in the technique described by Andrei et al., Eur. J. Clin. Microbiol. Infect. Dis., 11, 143-151 (1992), Reymen et al., Antiviral Res., 28, 343-357 (1995).
(§2) The technique used consists in the measurement of the cytopathogenic effect of the herpesvirus and of its protection by the use of products of general formula (I). The antiviral activity is assessed by measuring the IC50 (concentration necessary to inhibit 50% of the cytopathogenic effect induced by the virus).
(§3) The activity of the products according to the invention on the human cytomegalovirus has been studied on the Davis and AD-169 strains.

[2] = test system: human cytomegalovirus Davis strain; assay: Antiviral activity on human cytomegalovirus, Davis strain (protection from virus-induced cytopathogenic effect); format: cell-based; conditions: for IC50 (concentration necessary to inhibit 50% of the cytopathogenic effect induced by the virus): Davis strain; for IC50: Human betaherpesvirus 5, Davis strain, read-out: IC50 (concentration necessary to inhibit 50% of the cytopathogenic effect induced by the virus)
Method: as §1, §2, §3

Row | IC50 (concentration necessary to inhibit 50% of the cytopathogenic effect induced by the virus) ([1]; AD-169 strain) [µg/mL] | IC50 ([1]; Human betaherpesvirus 5, AD169, AD-169 strain, read-out: IC50 (concentration necessary to inhibit 50% of the cytopathogenic effect induced by the virus)) [µg/mL] | IC50 (concentration necessary to inhibit 50% of the cytopathogenic effect induced by the virus) [2] [µg/mL] | IC50 [2] [µg/mL] | IC50 (concentration necessary to inhibit 50% of the cytopathogenic effect induced by the virus) ([2]; listed as 7 [(R,S) form]) [µg/mL] | Compound
1 | 0.86 | 0.5 (≈ 1.65 µM) | 0.72 | 0.43 (≈ 1.42 µM) |  | COC1=Cc2c(C(N)=O)c(Cl)c(-c3cccnc3)n2CC1 [Example 2, 2-chloro-7-methoxy-3-pyridin-3-yl-5,6-dihydroindolizine-1-carboxamide]
2 |  |  |  | 0.5 (≈ 1.62 µM) |  | NC(=O)c1c(Cl)c(-c2cccnc2)n2c1C=C(Cl)CC2 [Example 1, 2,7-dichloro-3-pyridin-3-yl-5,6-dihydroindolizine-1-carboxamide]
3 |  |  |  | 0.027 (≈ 0.0925 µM) | 0.015 | NC(=O)c1c(Cl)c(-c2cccnc2)n2c1C(O)CCC2 (racemic) [Example 7, (R,S)-2-chloro-8-hydroxy-3-pyridin-3-yl-5,6,7,8-tetrahydroindolizine-1-carboxamide]
